Literature values in patent US20230338402A1, “TREATMENT REGIMEN FOR CANCER USING IMMUNOMODULATION” (BioXcel Therapeutics, Inc., priority 2020, published 2023).
Where a name gives a salt, the structure may show the parent alone.

Columns and labels:
CYP1A2 [1] = target: T1, CYP1A2 (Homo sapiens, UniProt P05177); settings: human liver CYP isoenzymes, preclinical studies
T1 sequence (P05177 1-516): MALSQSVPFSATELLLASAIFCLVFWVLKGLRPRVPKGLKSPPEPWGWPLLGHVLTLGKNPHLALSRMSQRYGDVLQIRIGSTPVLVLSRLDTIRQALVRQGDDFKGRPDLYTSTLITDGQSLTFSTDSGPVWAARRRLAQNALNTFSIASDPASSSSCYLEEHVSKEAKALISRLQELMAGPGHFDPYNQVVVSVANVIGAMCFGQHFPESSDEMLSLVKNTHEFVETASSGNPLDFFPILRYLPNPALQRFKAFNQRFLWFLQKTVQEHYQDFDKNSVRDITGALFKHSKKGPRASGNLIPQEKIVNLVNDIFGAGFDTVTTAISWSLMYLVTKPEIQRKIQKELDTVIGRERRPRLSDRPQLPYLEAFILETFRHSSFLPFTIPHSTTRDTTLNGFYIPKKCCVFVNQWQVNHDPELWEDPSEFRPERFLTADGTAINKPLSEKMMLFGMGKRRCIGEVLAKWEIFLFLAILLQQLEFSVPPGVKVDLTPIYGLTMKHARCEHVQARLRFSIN

CYP2C8 = target: T2, CYP2C8 (Homo sapiens, UniProt P10632)
T2 sequence (P10632 1-490): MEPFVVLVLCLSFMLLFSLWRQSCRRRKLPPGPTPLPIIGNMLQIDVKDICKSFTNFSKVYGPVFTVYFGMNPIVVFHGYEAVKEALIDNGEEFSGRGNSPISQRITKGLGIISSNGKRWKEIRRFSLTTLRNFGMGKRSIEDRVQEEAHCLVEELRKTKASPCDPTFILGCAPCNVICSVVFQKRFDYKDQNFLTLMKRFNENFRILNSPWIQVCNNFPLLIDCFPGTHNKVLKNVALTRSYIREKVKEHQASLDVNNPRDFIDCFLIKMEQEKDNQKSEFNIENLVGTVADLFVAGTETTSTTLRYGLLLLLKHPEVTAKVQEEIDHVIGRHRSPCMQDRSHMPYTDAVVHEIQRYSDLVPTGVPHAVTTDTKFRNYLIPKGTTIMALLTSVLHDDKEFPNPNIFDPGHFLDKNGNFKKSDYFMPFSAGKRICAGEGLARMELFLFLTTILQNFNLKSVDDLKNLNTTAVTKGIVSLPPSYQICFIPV

CYP2C9 = CYP2C9 (Homo sapiens, UniProt P11712)
CYP2C9, sequence (P11712 whole entry): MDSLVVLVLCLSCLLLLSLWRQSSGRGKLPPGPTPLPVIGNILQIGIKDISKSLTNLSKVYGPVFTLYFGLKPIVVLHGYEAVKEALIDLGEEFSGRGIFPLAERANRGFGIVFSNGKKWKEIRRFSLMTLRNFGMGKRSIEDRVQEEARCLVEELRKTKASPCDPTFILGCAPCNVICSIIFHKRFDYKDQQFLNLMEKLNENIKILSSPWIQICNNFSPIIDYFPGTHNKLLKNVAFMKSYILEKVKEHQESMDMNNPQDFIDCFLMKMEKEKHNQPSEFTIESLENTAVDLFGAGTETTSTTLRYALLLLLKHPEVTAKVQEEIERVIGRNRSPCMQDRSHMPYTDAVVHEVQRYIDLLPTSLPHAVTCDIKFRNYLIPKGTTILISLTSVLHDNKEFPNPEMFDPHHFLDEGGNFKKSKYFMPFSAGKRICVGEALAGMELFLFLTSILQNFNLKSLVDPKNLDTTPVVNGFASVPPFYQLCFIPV

CYP2C19 = CYP2C19 (Homo sapiens, UniProt P33261)
CYP2C19, sequence (P33261 whole entry): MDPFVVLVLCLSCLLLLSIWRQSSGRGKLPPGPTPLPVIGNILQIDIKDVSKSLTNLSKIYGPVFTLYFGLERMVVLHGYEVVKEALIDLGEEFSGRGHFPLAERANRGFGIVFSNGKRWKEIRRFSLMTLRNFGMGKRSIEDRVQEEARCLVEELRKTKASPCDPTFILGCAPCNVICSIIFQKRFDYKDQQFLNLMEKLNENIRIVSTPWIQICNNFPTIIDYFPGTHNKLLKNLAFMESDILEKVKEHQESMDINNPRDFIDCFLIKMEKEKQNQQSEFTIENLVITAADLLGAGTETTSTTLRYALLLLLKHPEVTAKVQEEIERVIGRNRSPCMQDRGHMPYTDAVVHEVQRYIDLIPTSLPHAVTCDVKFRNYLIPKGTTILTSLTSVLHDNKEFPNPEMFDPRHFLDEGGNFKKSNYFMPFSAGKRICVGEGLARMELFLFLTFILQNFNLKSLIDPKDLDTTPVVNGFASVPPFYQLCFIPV

CYP2D6 = CYP2D6 (Homo sapiens, UniProt P10635)
CYP2D6, sequence (P10635 whole entry): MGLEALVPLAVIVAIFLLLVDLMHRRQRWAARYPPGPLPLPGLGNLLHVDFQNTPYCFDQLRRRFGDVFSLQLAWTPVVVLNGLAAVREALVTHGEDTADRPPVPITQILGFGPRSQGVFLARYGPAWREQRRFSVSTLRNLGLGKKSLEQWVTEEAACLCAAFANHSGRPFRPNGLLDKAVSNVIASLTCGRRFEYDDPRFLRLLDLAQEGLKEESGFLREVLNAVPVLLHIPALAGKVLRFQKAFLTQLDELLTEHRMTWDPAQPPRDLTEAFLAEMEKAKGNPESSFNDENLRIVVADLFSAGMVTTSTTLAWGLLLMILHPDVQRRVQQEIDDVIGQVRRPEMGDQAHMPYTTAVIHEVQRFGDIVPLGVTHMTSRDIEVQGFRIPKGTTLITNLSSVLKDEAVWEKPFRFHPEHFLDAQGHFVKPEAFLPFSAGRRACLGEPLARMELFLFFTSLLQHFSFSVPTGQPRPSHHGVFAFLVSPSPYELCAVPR

CYP3A4 [2] = target: CYP3A4 (Homo sapiens, UniProt P08684)
CYP3A4 (Homo sapiens, UniProt P08684), sequence (P08684 whole entry): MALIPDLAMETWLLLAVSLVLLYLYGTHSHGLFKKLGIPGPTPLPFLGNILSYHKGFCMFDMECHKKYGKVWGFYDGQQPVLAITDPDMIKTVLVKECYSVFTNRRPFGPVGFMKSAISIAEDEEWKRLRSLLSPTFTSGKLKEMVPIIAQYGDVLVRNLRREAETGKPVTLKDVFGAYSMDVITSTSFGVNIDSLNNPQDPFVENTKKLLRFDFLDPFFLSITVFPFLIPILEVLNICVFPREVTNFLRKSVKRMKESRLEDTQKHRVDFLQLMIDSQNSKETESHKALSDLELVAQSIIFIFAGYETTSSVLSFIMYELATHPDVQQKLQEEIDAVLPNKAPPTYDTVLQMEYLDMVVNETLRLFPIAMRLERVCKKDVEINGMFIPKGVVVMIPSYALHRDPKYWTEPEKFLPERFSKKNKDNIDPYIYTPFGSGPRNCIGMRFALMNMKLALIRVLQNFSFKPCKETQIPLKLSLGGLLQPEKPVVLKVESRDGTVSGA

CYP3A4 [3] = test system: CYP3A4
CYP1A2 [4] = test system: CYP1A2
melanoma = melanoma patients

Row | Molecule | Potential to inhibit CYP1A2 (CYP1A2 [1]) | Potential to inhibit CYP2C8 (CYP2C8) | Potential to inhibit CYP2C9 (CYP2C9) | Potential to inhibit CYP2C19 (CYP2C19) | Potential to inhibit CYP2D6 (CYP2D6) | Potential to inhibit CYP3A4 (CYP3A4 [2]) | Induction of CYP3A4 (CYP3A4 [3]) | Induction of CYP1A2 (CYP1A2 [4]) | Response rate (melanoma)
1 | CC(C)[C@H](N)C(=O)N1CCC[C@H]1B(O)O [Talabostat mesylate, [(2R)-1-[(2S)-2-amino-3-methylbutanoyl]pyrrolidin-2-yl]boronic acid] | low potential | low potential | low potential | low potential | low potential | low potential | did not induce | did not induce | –
2 | Ipilimumab: CTLA-4 antagonist, immune checkpoint inhibitor antibody | – | – | – | – | – | – | – | – | 11%
3 | Nivolumab: PD-1 antagonist, immune checkpoint inhibitor antibody | – | – | – | – | – | – | – | – | 32%
